Laboratory results from US20110294794A1, “TREATMENT OF PROTEINOPATHIES USING A FARNESYL TRANSFERASE INHIBITOR” (Link Medicine Corporation, priority 2008, published 2011).
“Also recorded” adds a separate entry of the source. Read-outs that look alike come from different tables or passages of the source.

What was measured:
α-synuclein = test: Masliah D-line human WT α-synuclein transgenic mouse, α-synuclein immunoreactivity / ELISA; format: in vivo; conditions: for number of α-synuclein positive neurons: lower-dose trial (FIG. 2B); for levels of α-synuclein in the hippocampus / α-synuclein inclusions vs. transgenic animals administered vehicle alone: α-synuclein transgenic mice
Procedure: Animals and treatments: Male and female human WT alpha-synuclein over-expressing transgenic mice^32 at 6 months of age were given vehicle (10% beta-cyclodextrin) or LNK-754-TS (0.09, 0.9 and 9 mg/kg) per oral gavage twice daily for 3 months or animals at 7 months of age were given vehicle (2.5% beta-cyclodextrin) or LNK-754-TS (2 mg/kg) once every three days for 3 months. Male and female TAU transgenic mice expressing TAU441 bearing the missense mutations V337M^50 and R406W under the control of the murine Thy-1 promoter with a CB6xC57BL/6 background were 5 months old at the time when the oral treatment for three months with LNK-754-TS (0.9 and 0.09 mg/kg) as well as vehicle (2.5% beta-cyclodextrin) was started. Female human APP/PS1 (APP (London V7171)/PS1(A246E)) over-expressing transgenic mice were treated with LNK-754-TS (0.9 mg/kg) or vehicle (2.5% beta-cyclodextrin) for 2 months or 12 days.
Immunohistochemistry and quantification of stained cells: For evaluation of α-synuclein immunoreactivity (IR), 5 sagittal cryo-cut sections (10 μm slice thickness) from five different layers were used for counting of IR cells in the cortex and hippocampus. Brain sections were stained with a monoclonal human α-synuclein specific antibody (Alexis®; Cat# 804-258-L001; dilution 1:5), followed by a secondary Ab Cy 2-Goat Anti-Rat (Jackson ImmunoResearch®; dilution 1:200). IR positive cells were quantified using specialized image analysis software (Image Pro Plus, version 4.5.1.29). For Tau transgenic animals, 5 μm thick coronal paraffin sections were stained with the monoclonal mouse anti-human TAU-antibodies (AT180—1:100; HT—1:500) and visualized using an anti-mouse Cy3 secondary antibody (1:500, Jackson laboratories®). Images were evaluated with ImageProPlus (version 6.2) image analysis software. For APP/PS1 transgenic animals sagittal hemisections (40 μm) were collected and processed for Aβ immunohistochemistry using an 6E10 antibody, Thioflavin-S staining Primary antibodies were detected by the ABC method.
ELISA quantification of α-Synuclein in the α-Synuclein transgenic animals: Brain homogenate was centrifuged and the supernatant saved as fraction F1. The pellet was washed then resuspended and saved as fraction F2. Plates (Nunc, 464718) were coated with SYN-1 (1:1000, BD Transduction Labs, 610787). Monomeric recombinant α-synuclein was included as an internal standard. Biotinylated antibody FL-140 (1:300, Santa Cruz Biotechnology, sc-10717-B) and ExtrAvidin-Alkaline phosphatase (3:5000, Sigma, E2636) was added followed by pNPP substrate solution (Sigma, N1891). Raw absorbance (405 nm) was then normalized to the total protein concentration of each sample. In the APP/PS1 transgenic animal, brains were homogenized and the supernatant, Faction 1, was separated from the pellet. The pellets were further processed with addition of NP40 and Triton X-100. The supernatant was separated from the pellet as the insoluble membrane, Fraction 2, and was dissolved in 8M Guanidine. To quantify the amount of human Aβ-40 and Aβ-42, ELISA kits were used (The Genetics Company, Zurich, Switzerland).
In FIG. 2 is shown efficacy data for LNK-754-TS in the Masliah D-line transgenic α-synuclein mouse (an accepted model of synucleinopathies). Two trials are shown, the first (FIG. 2A) at higher doses of LNK-754-TS: 45 mg/kg and 9 mg/kg. […] The second trial (FIG. 2B) explores the low dose range for efficacy in the α-synuclein models. […]
After dosing with LNK-754-TS for three months (twice daily at 0.09 mg/kg or 0.9 mg/kg), α-synuclein accumulation in the brain was analyzed by immunohistochemical (human specific α-synuclein immunoreactivity) and biochemical (α-synuclein ELISA) means. […]

GGTase [1] = molecular target: T1, GGTase (Homo sapiens, UniProt P49354+P53609); test: In vitro GGTase inhibition by LNK-754 (Table 5A); format: biochemical; conditions: general statement
Source text: (§1) The selectivity of LNK-754 for FTase over GGTAse is shown below in Table 5A.

GGTase [2] = test: In vitro GGTase inhibition by LNK-754 (Table 5A); format: biochemical
Source text: as §1

[3] = tested on: 3T3 H-ras (61L) xenograft tumor; conditions: continuous infusion, cited from earlier work
[4] = Pharmacokinetics of Zarnestra in C57BL/6 mice, oral administration; format: in vivo, mouse; conditions: 5 mg/kg p.o. single dose
Procedure: LLOQ: brain 4 ng/g; plasma 50 ng/ml.
The pharmacokinetic profiles of LNK-754-TS and Zarnestra® were analyzed using methods known in the art. The results are shown in FIGS. 13-14 and the tables below.

LC3 mRNA = LC3 mRNA (qPCR) in differentiated SH-SY5Y cells; format: cell-based, human; conditions: 100 nM, 72 hr
Procedure: (§2) Cell culture and immunocytochemistry: SH-SY5Y cells were grown in DMEM medium supplemented with 10% FBS and 1% pen/strep at 37° C. and 5% CO2. Cells were differentiated with 10 μM retinoic acid for 48 hr, then treated with the either rapamycin (100 nM or 1 μM) or with 100 nM of either LNK-754-TS or Tipifarnib for 48-72 hr. Cells were then fixed with 4% paraformaldehyde and stained for LC3 (Novus biological, NB100-2331, dilution 1:800) followed by secondary Alexa-564 anti-Rabbit (A-11011).
(§3) Quantitative real-time PCR: Gene expression profiles were done by qPCR on series of known autophagy genes. RNA was extracted with Tri-reagent (Sigma), and cDNAs generated using iScript (Biorad). qPCR analysis was carried out in a 96 well plate using an iCycler (BioRad, Hercules, Calif.), and iQ SYBR Green Supermix (Biorad) according to the manufacturer's specifications.
Such increases in LC3 mRNA levels are associated in the literature with stimulation of macroautophagy. This supports the hypothesis that at doses as low as 1 nM in this in vitro system there is stimulation of autophagy in these cells.
(§4) Autophagy was measured in a neuroblastoma cell culture system by three distinct approaches: quantitation of autophagy-related mRNA's, immunofluorescence microscopy of autophagosomes, and biochemical detection of the microtubule-associated protein 1 light chain 3 (LC3) a key protein that is required for autophagosome formation. Differentiated human neuroblastoma cells (SH-SY5Y) were treated for 72 hr with LNK-754-TS (0.01-100 nM), Zarnestra® (also referred to herein as tipifarnib) (100 nM) or rapamycin (1 μM).

LC3 = test: Punctate LC3 immunostaining in SH-SY5Y cells; format: cell-based, human; conditions: 100 nM (FIG. 8b)
Procedure: as §2, §4

Atg1 = test: mRNA levels of autophagy-related genes (Atg1) in SH-SY5Y cells; format: cell-based, human; conditions: 100 nM (FIG. 8d)
Procedure: as §3
(§5) The mechanism of autophagy stimulation by LNK-754-TS appears distinct from that of the drug rapamycin. Rapamycin is a well-characterized autophagy stimulator that acts through inhibition of mTOR, a kinase involved in nutrient signaling and regulation of cell growth and survival. […] To further contrast the mechanism of autophagy stimulation by LNK-754-TS to that of rapamycin, a collection of mRNA transcripts of autophagy proteins were measured (FIG. 8d). Selected mRNAs from untreated SH-SY5Y cells were compared to mRNAs from cells treated with LNK-754-TS (100 nM), tipifarnib (100 nM), or rapamycin (1 μM).

GGTase [5] = molecular target: T1, GGTase; conditions: general statement; cited from earlier work
LC3-II = LC3-II protein level (autophagic flux) in SH-SY5Y cells with or without bafilomycin A1; format: cell-based, human; conditions: bafilomycin A1 (10 nM) alone, without test compound
Source text: Data are represented as mean+/−SEM with statistical significance by paired student's t-test (n=4, p<0.05).
The observed increase in LC3-positive autophagosomes could result, in principle, from either an increased flux through the autophagy pathway or decreased autophagosome degradation (Pankiv, S., et al. J Biol Chem 282, 24131-24145 (2007); Kamada, Y., et al. J Cell Biol 150, 1507-1513 (2000)). […] In order to ascertain an increase in autophagic flux, cells were co-treated with LNK-754-TS and an inhibitor of autophagosome-lysosome fusion, bafilomycin A1 (10 nM). Bafilomycin treatment alone caused a 100% increase in the amount of LC3-II, consistent with the fact that it inhibits autophagosome degradation (FIG. 8c).
as §5

C#Cc1cccc(-c2cc(=O)n(C)c3ccc([C@](O)(c4ccc(Cl)cc4)c4cncn4C)cc23)c1 [LNK-754, (R)-6-[(4-chlorophenyl)-hydroxyl-(1-methyl-1-H-imidazol-5-yl)-methyl]-4-(3-ethynylphenyl)-1-methyl-2-(1H)-quinonlinone]
number of α-synuclein positive neurons (α-synuclein; 0.09 mg/kg): significantly lowered | number of α-synuclein positive neurons (α-synuclein; 0.9 mg/kg): significantly lowered | number of α-synuclein positive neurons in the brain (α-synuclein; 9 mg/kg PO BID 3 months, higher-dose trial (FIG. 2A)): significantly lower | number of α-synuclein positive neurons in the brain (α-synuclein; 45 mg/kg PO BID 3 months, higher-dose trial (FIG. 2A)): did not significantly lower; also recorded: not found to significantly lower | number of α-synuclein positive neurons in the brain (α-synuclein; lower doses, 0.09 mg/kg to 9 mg/kg (FIGS. 2A and 2B)): significant reduction | levels of α-synuclein in the hippocampus (α-synuclein): decrease | α-synuclein inclusions vs. transgenic animals administered vehicle alone (α-synuclein): fewer | GGTase inhibitory activity (GGTase [1]): little to no | GGTI/FTI (GGTase [2]; H-Ras substrates): 580 | GGTI/FTI (GGTase [2]; K-Ras substrates): 40.11 | continuous serum level at which significant inhibition of tumor growth was seen ([3]; 7 day treatment): above 100 ng/mL | inhibition of Ras farnesylation at which significant inhibition of tumor growth was seen ([3]; tumor tissue): at least 50%

Cn1cncc1[C@@](N)(c1ccc(Cl)cc1)c1ccc2c(c1)c(-c1cccc(Cl)c1)cc(=O)n2C [Zarnestra®, (R)-6-(Amino(4-chlorophenyl)(1-methyl-1H-imidazol-5-yl)methyl)-4-(3-chlorophenyl)-1-methyl-2(1H)-quinolinone, reference compound]
levels of α-synuclein in the hippocampus (α-synuclein): decrease | α-synuclein inclusions vs. transgenic animals administered vehicle alone (α-synuclein): fewer | t1/2z ([4]; Blood): 1.31 h | AUC(0-t) ([4]; Brain): 44.50 ng·h/g | AUC(0-[…]) ([4]; Brain): 86.86 ng·h/g | t1/2z ([4]; Brain): 8.10 h | LC3 mRNA level (LC3 mRNA): also works; also recorded: upregulated | LC3 mRNA level (LC3 mRNA; listed as tipifarnib): increased | punctate LC3 immunostaining (number of LC3-positive puncta) (LC3): distinct increase | punctate LC3 immunostaining (number of LC3-positive puncta) (LC3; listed as tipifarnib): increased | mRNA levels of a set of autophagy-related genes (Atg1): unaffected | GGTase inhibitory activity (GGTase [5]): little to no

CO/C1=C\C(C)=C\[C@@H](C)[C@@H](O)[C@@H](C)C/C(C)=C/C=C/[C@H](OC)[C@@H]([C@@H](C)[C@@H](O)[C@H](C)[C@@]2(O)C[C@@H](O)[C@H](C)[C@@H](C(C)C)O2)OC1=O [bafilomycin A1, reference compound]
increase in the amount of LC3-II (LC3-II): 100%
